Measured values reported in PubChem BioAssay (NCI).
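Results reflect a 48-hour exposure of cells in 96-well plates to compound at five concentrations. Abbreviation: GI50, concentration required for 50% inhibition of growth. TGI: concentration producing complete growth inhibition.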

Assays:
Experiment in all cases: DTP human tumour cell line panel, 48 h
IGROV1 ovarian = test system: IGROV1 ovarian
UACC-62 melanoma = test system: UACC-62 melanoma
HOP-92 NSCLC = test system: HOP-92 NSCLC
KM12 colon = test system: KM12 colon
M14 melanoma = test system: M14 melanoma
SNB-75 CNS = test system: SNB-75 CNS
NCI-H226 lung = test system: NCI-H226 lung
SK-MEL-5 melanoma = test system: SK-MEL-5 melanoma
SF-295 CNS = test system: SF-295 CNS
SNB-19 CNS = test system: SNB-19 CNS
HT29 colon = test system: HT29 colon
HS 578T breast = test system: HS 578T breast
786-0 renal = test system: 786-0 renal
MALME-3M melanoma = test system: MALME-3M melanoma
HL-60(TB) leukemia = test system: HL-60(TB) leukemia
U251 CNS = test system: U251 CNS
SR leukemia = test system: SR leukemia
A498 renal = test system: A498 renal
SN12C renal = test system: SN12C renal
SF-539 CNS = test system: SF-539 CNS
EKVX NSCLC = test system: EKVX NSCLC
TK-10 renal = test system: TK-10 renal
OVCAR-4 ovarian = test system: OVCAR-4 ovarian
OVCAR-3 ovarian = test system: OVCAR-3 ovarian
A549 NSCLC = test system: A549 NSCLC
UO-31 renal = test system: UO-31 renal
NCI-H460 lung = test system: NCI-H460 lung
K-562 leukemia = test system: K-562 leukemia
MOLT-4 leukemia = test system: MOLT-4 leukemia
MDA-MB-435 = test system: MDA-MB-435
CAKI-1 renal = test system: CAKI-1 renal
UACC-257 melanoma = test system: UACC-257 melanoma
SK-MEL-28 melanoma = test system: SK-MEL-28 melanoma
HCT-15 colon = test system: HCT-15 colon
HCC-2998 colon = test system: HCC-2998 colon
HOP-62 NSCLC = test system: HOP-62 NSCLC
HCT-116 colon = test system: HCT-116 colon
BT-549 breast = test system: BT-549 breast
MDA-MB-231 breast = test system: MDA-MB-231 breast
SF-268 CNS = test system: SF-268 CNS
OVCAR-8 ovarian = test system: OVCAR-8 ovarian
OVCAR-5 ovarian = test system: OVCAR-5 ovarian
NCI/ADR-RES ovarian = test system: NCI/ADR-RES ovarian
PC-3 prostate = test system: PC-3 prostate
NCI-H522 lung = test system: NCI-H522 lung
MDA-MB-468 breast = test system: MDA-MB-468 breast
SK-MEL-2 melanoma = test system: SK-MEL-2 melanoma
RPMI-8226 leukemia = test system: RPMI-8226 leukemia
T-47D breast = test system: T-47D breast
NCI-H23 lung = test system: NCI-H23 lung
SK-OV-3 ovarian = test system: SK-OV-3 ovarian
DU-145 prostate = test system: DU-145 prostate
COLO 205 colon = test system: COLO 205 colon
LOX IMVI melanoma = test system: LOX IMVI melanoma
SW-620 colon = test system: SW-620 colon
CCRF-CEM leukemia = test system: CCRF-CEM leukemia
MCF7 breast = test system: MCF7 breast
ACHN renal = test system: ACHN renal

Compound `Clc1ccc2c(NCCNC34CC5CC(CC(C5)C3)C4)ccnc2c1` has a GI50 (IGROV1 ovarian) of 3.37 µM, a TGI (IGROV1 ovarian) of 6.65 µM and a GI50 (UACC-62 melanoma) of 3.03 µM. It also gave a TGI (UACC-62 melanoma) of 6.05 µM, a GI50 (HOP-92 NSCLC) of 0.484 µM and a TGI (HOP-92 NSCLC) of 3.17 µM. The GI50 (KM12 colon) was 2.87 µM, the TGI (KM12 colon) was 5.82 µM and the GI50 (M14 melanoma) was 0.43 µM. The TGI (M14 melanoma) was 0.837 µM, the GI50 (SNB-75 CNS) was 3.15 µM and the TGI (SNB-75 CNS) was 6.97 µM. The GI50 (NCI-H226 lung) was 3.04 µM, the TGI (NCI-H226 lung) was 6.5 µM and the GI50 (SK-MEL-5 melanoma) was 3.12 µM. For the same compound, the TGI (SK-MEL-5 melanoma) was 6.12 µM, the GI50 (SF-295 CNS) was 3.47 µM and the TGI (SF-295 CNS) was 6.67 µM. The GI50 (SNB-19 CNS) was 3.8 µM, the TGI (SNB-19 CNS) was 7.19 µM and the GI50 (HT29 colon) was 0.675 µM. It also gave a TGI (HT29 colon) of 2.71 µM, a GI50 (HS 578T breast) of 2.64 µM and a TGI (HS 578T breast) of 6.51 µM. The GI50 (786-0 renal) was 2.41 µM, the TGI (786-0 renal) was 5.57 µM and the GI50 (MALME-3M melanoma) was 1.25 µM. It also gave a TGI (MALME-3M melanoma) of 4.24 µM, a GI50 (HL-60(TB) leukemia) of 3.69 µM and a TGI (HL-60(TB) leukemia) of 8.73 µM. For the same compound, the GI50 (U251 CNS) was 1.32 µM, the TGI (U251 CNS) was 4.78 µM and the GI50 (SR leukemia) was 0.622 µM. It also gave a TGI (SR leukemia) of 2.31 µM, a GI50 (A498 renal) of 3.09 µM and a TGI (A498 renal) of 6.1 µM. It also gave a GI50 (SN12C renal) of 3.24 µM, a TGI (SN12C renal) of 6.34 µM and a GI50 (SF-539 CNS) of 0.533 µM. It also gave a TGI (SF-539 CNS) of 1.21 µM, a GI50 (EKVX NSCLC) of 3.53 µM and a TGI (EKVX NSCLC) of 7.16 µM. For the same compound, the GI50 (TK-10 renal) was 3.71 µM, the TGI (TK-10 renal) was 7.28 µM and the GI50 (OVCAR-4 ovarian) was 2.95 µM. It also gave a TGI (OVCAR-4 ovarian) of 7.8 µM, a GI50 (OVCAR-3 ovarian) of 3.11 µM and a TGI (OVCAR-3 ovarian) of 6.1 µM. The GI50 (A549 NSCLC) was 3.19 µM, the TGI (A549 NSCLC) was 7.18 µM and the GI50 (UO-31 renal) was 2.57 µM. It also gave a TGI (UO-31 renal) of 5.38 µM, a GI50 (NCI-H460 lung) of 3.31 µM and a TGI (NCI-H460 lung) of 6.61 µM. It also gave a GI50 (K-562 leukemia) of 0.756 µM, a TGI (K-562 leukemia) of 4.57 µM and a GI50 (MOLT-4 leukemia) of 3.63 µM. The TGI (MOLT-4 leukemia) was 10.2 µM, the GI50 (MDA-MB-435) was 0.566 µM and the TGI (MDA-MB-435) was 1.6 µM. It also gave a GI50 (CAKI-1 renal) of 2.82 µM, a TGI (CAKI-1 renal) of 5.76 µM and a GI50 (UACC-257 melanoma) of 3.24 µM. The TGI (UACC-257 melanoma) was 6.62 µM, the GI50 (SK-MEL-28 melanoma) was 3.15 µM and the TGI (SK-MEL-28 melanoma) was 6.2 µM. It also gave a GI50 (HCT-15 colon) of 0.763 µM, a TGI (HCT-15 colon) of 3.28 µM and a GI50 (HCC-2998 colon) of 0.889 µM. The TGI (HCC-2998 colon) was 3.32 µM, the GI50 (HOP-62 NSCLC) was 3.7 µM and the TGI (HOP-62 NSCLC) was 7.41 µM. It also gave a GI50 (HCT-116 colon) of 1.43 µM, a TGI (HCT-116 colon) of 4.91 µM and a GI50 (BT-549 breast) of 2.67 µM. For the same compound, the TGI (BT-549 breast) was 6.03 µM, the GI50 (MDA-MB-231 breast) was 2.38 µM and the TGI (MDA-MB-231 breast) was 5.19 µM. For the same compound, the GI50 (SF-268 CNS) was 3.03 µM, the TGI (SF-268 CNS) was 6.14 µM and the GI50 (OVCAR-8 ovarian) was 2.9 µM. The TGI (OVCAR-8 ovarian) was 6.16 µM, the GI50 (OVCAR-5 ovarian) was 2.9 µM and the TGI (OVCAR-5 ovarian) was 6.05 µM. The GI50 (NCI/ADR-RES ovarian) was 3.21 µM, the TGI (NCI/ADR-RES ovarian) was 6.42 µM and the GI50 (PC-3 prostate) was 3.1 µM. It also gave a TGI (PC-3 prostate) of 7.77 µM, a GI50 (NCI-H522 lung) of 2.9 µM and a TGI (NCI-H522 lung) of 6.34 µM. For the same compound, the GI50 (MDA-MB-468 breast) was 0.435 µM, the TGI (MDA-MB-468 breast) was 1.21 µM and the GI50 (SK-MEL-2 melanoma) was 3.37 µM. The TGI (SK-MEL-2 melanoma) was 6.62 µM, the GI50 (RPMI-8226 leukemia) was 1.22 µM and the TGI (RPMI-8226 leukemia) was 9.55 µM. It also gave a GI50 (T-47D breast) of 3.33 µM, a TGI (T-47D breast) of 7.75 µM and a GI50 (NCI-H23 lung) of 3.41 µM. It also gave a TGI (NCI-H23 lung) of 6.82 µM, a GI50 (SK-OV-3 ovarian) of 4.32 µM and a TGI (SK-OV-3 ovarian) of 8.21 µM. It also gave a GI50 (DU-145 prostate) of 3.57 µM, a TGI (DU-145 prostate) of 6.72 µM and a GI50 (COLO 205 colon) of 0.416 µM. It also gave a TGI (COLO 205 colon) of 1 µM, a GI50 (LOX IMVI melanoma) of 1.06 µM and a TGI (LOX IMVI melanoma) of 4.07 µM. The GI50 (SW-620 colon) was 2.83 µM, the TGI (SW-620 colon) was 6 µM and the GI50 (CCRF-CEM leukemia) was 5 µM. For the same compound, the TGI (CCRF-CEM leukemia) was 12.9 µM, the GI50 (MCF7 breast) was 0.868 µM and the TGI (MCF7 breast) was 3.47 µM. The GI50 (ACHN renal) was 2.88 µM and the TGI (ACHN renal) was 5.83 µM.
